Results reported in PMC5903241 (British Journal of Clinical Pharmacology, 2018).
Several values for one entry are separate records, joined by “and”; a condition that tells them apart may be missing. Equal values may be shown once. Read-outs that look alike come from different tables or passages of the source.

What was measured:
[1] = type: in vivo, healthy subjects; details: for Tmax / AUC / Cmax: human, plasma, oral; for AUC: AUCtau, steady state; for AUC / Cmax: mean (SD); for Cmax: Cmax,ss; for Estimated geometric mean ratio of AUCtau / Estimated geometric mean ratio of Cmax,ss: sacubitril/valsartan + furosemide vs sacubitril/valsartan alone
Safety assessments = type: in vivo, healthy subjects; details: for Pulse rate / Supine diastolic blood pressure / Supine systolic blood pressure: mean ± SD; for eGFR: mean ± standard deviation, baseline 107.8 ± 10.9
[2] = type: in vivo, healthy subjects; details: mean (SD)
[3] = furosemide 40 mg alone, geometric least squares mean
[4] = 200 mg, sacubitril/valsartan 200 mg twice daily alone
[5] = sacubitril/valsartan 200 mg twice daily + furosemide 40 mg single dose
[6] = urine, 4 to 8 h after furosemide

Compound | Tmax ([1]; 200 mg) [h] | AUC [1, 4] [ng·h/mL] | Cmax [1, 4] [ng/mL] | AUC [1, 5] [ng·h/mL] | Cmax [1, 5] [ng/mL] | Estimated geometric mean ratio of AUCtau [1] | Estimated geometric mean ratio of Cmax,ss [1] | Pulse rate (Safety assessments) [bpm] | Supine diastolic blood pressure (Safety assessments) [mmHg] | Supine systolic blood pressure (Safety assessments) [mmHg] | eGFR (Safety assessments) [ml min^–1 1.73 m^–2] | other results
CCCCC(=O)N(Cc1ccc(-c2ccccc2-c2nnn[nH]2)cc1)[C@H](C(=O)O)C(C)C [Valsartan, valsartan] | 1.75 | 18900 | 3860 | 21000 | 4250 | 1.16 | 1.16 | – | – | – | – | coefficient of variation of pharmacokinetic parameters ([1]; valsartan pharmacokinetic parameters): 35.8%; increase of AUCtau when coadministered with furosemide ([1]; vs sacubitril/valsartan alone): 16%; increase of Cmax,ss when coadministered with furosemide ([1]; vs sacubitril/valsartan alone): 16%
sacubitril/valsartan | – | – | – | – | – | – | – | 71.6 ± 9.9 | 67.5 ± 7.9 | 111.1 ± 10.7 | 107.7 ± 12.5 | subjects reporting AEs diarrhoea, headache and presyncope (each) (Safety assessments; each reported by one subject of 28, sacubitril/valsartan alone): 3.6%
CCOC(=O)[C@H](C)C[C@@H](Cc1ccc(-c2ccccc2)cc1)NC(=O)CCC(=O)O [Sacubitril, sacubitril] | 0.52 | 2330 | 1740 | 2330 | 1810 | 1.01 | 1.04 | – | – | – | – | –
C[C@H](C[C@@H](Cc1ccc(-c2ccccc2)cc1)NC(=O)CCC(=O)O)C(=O)O [Sacubitrilat, sacubitrilat] | 2 | 79600 | 11800 | 86100 | 12700 | 1.08 | 1.08 | – | – | – | – | –
NS(=O)(=O)c1cc(C(=O)O)c(NCc2ccco2)cc1Cl [Furosemide, furosemide] | – | – | – | – | – | – | – | 71.0 ± 9.7 | 71.6 ± 6.1 | 115.5 ± 12.2 | 103.1 ± 12.5 | Urine volume, Volume0–4 ([2]; 0 to 4 h after furosemide): 1640.00 (413.49) ml; Urine volume, Volume0–24 ([2]; 0 to 24 h after furosemide): 3816.07 (533.04) ml; Urine volume, Volume4–8 ([2]; 4 to 8 h after furosemide): 585.36 (204.30) ml; Potassium Ae0–4 ([2]; urine, 0 to 4 h after furosemide): 22.87 (5.60) mmol; Sodium Ae0–4 ([2]; urine, 0 to 4 h after furosemide, listed as Furosemide alone): 128.87 mmol and 128.87 (42.36) mmol; Potassium Ae0–24 ([2]; urine, 0 to 24 h after furosemide): 60.35 (8.08) mmol; Sodium Ae0–24 ([2]; urine, 0 to 24 h after furosemide, listed as Furosemide alone): 198.68 mmol and 198.68 (34.95) mmol; Potassium Ae4–8 [2, 6]: 10.04 (3.74) mmol; Sodium Ae4–8 [2, 6]: 21.57 (12.89) mmol; subjects reporting AE back pain (Safety assessments; one subject of 28): 3.6%; subjects reporting AEs (Safety assessments; when treated with furosemide, 28 subjects): Two subjects reported AEs; Ae0–4, amount excreted in urine ([3]; 0 to 4 h): 8.03 mg; Ae0–24, amount excreted in urine ([3]; 0 to 24 h): 12.54 mg
